# Reference: patent publication US20110028401A1, “CRIPTO BLOCKING MOLECULES AND THERAPEUTIC USES THEREOF” (CONSIGLIO NAZIONALE DELLE RICERCHE, priority 2009, published 2011)
# Experiments:
# Cripto/ALK-4 interaction = target: T1, Cripto/ALK-4 interaction (Mus musculus, UniProt P51865); test: ELISA-based competition assay of Cripto/ALK-4 interaction; assay type: binding
# T1 construct: the displacement of soluble recombinant Cripto from coated ALK-4 by the peptide pools was evaluated
# Procedure: To improve the overall solubility of the resulting mixtures, D-Glutamic (D-Glu), corresponding to building block 4 (Table S1) was initially chosen as the common, N-terminal residue. The total complexity of the library was therefore of 30^2=900 different peptides. In the first step of, the deconvolution process, the peptide pools were tested with a molar excess of 30000-fold (calculated for each single peptide) over Cripto (8.6×10^−10 M; FIG. 2. S1). Once identified an active pool(s), a dose-dependent inhibition using 200-, 500-, 1000-, 5000-, 12500 and 30000 fold excess was performed to confirm the inhibitory property (FIG. 3. S2). The first active pool selected was that labelled as 4-23-X (X indicated random positions), where “23” identified the amino acid L-Cysteine(S-benzyl) [L-Cys(Bzl)] (FIG. 3. S2). […] To finally investigate the N-terminal position, where D-Glu was initially arbitrarily placed, 30 single peptides labelled as B-23-23 were synthesized and submitted to the final screening (FIG. 5. S4 (a)). […]
# The screening was performed by an ELISA (Enzime-Linked Immunosorbent Assay) assay. […] Finally, the plate was developed with o-phenylendiammine peroxidase substrate (Sigma-Aldrich) and the absorbance was read at 490 nm on a microplate reader (Biorad Benchmark). […]
# ALK-4 receptor = target: T2, ALK-4 receptor (Homo sapiens, UniProt P36896); test: ELISA binding of ALK-4 receptor to plate-coated peptide; details: peptide coated at 50 μM; ALK-4 50 to 200 ng/ml
# T2 construct: the extracellular domain of ALK-4 receptor fused to human Fc (R&D Systems); purchased R&D Systems
# T2 sequence (P36896 24-126 limits assumed): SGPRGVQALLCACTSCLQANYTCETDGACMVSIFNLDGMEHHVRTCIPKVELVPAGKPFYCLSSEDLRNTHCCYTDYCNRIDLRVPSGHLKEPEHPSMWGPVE
# Procedure: To evaluate the binding of Cripto BP to either Cripto or ALK-4 receptor, BP or control peptides (CP; 50 μM) were coated on the surface of a 96-well microtiter plate and incubated over night at 4° C. Wells were washed five times with PBS Tween (PBT) and the aspecific sites blocked for 3 h at RT with 1% Bovine Serum Albumin (BSA) in PBS, 180 μL/well. Wells were washed as above, and the recombinant form of either ALK-4-humanFc chimeric receptor or Cripto protein in PBT were added at the indicated concentrations and incubated for 1 h at 37° C. followed by 1 hr at RT. After washing with PBT, to evaluate the binding of Cripto to 26-23-23, rabbit anti-Cripto IgG (6 μg/ml) were added to the plates and incubated 1 h at 37° C. and 1 hr at RT. After washing in PBT, a goat anti-rabbit […] (Santa Crutz) was added to the plate (0.3 μg/ml) and incubated 1 h at RT. Finally, the plate was developed as reported above. To evaluate the binding of ALK4 to 26-23-23, the extracellular domain of ALK-4 receptor fused to human Fc (R&D Systems) was added at the indicated concentrations and a goat anti-human Fc (Jackson ImmunoResearch; 1:1000) was used.
# [1] = system: Cripto-induced Smad2 phosphorylation; test: Smad2 phosphorylation assay (Western blot) in cripto-/- embryoid bodies; assay type: cell-based, mouse
# Procedure: Two day-old cripto^−/− Embryoid Bodies (EBs) were serum starved for 3 hrs in DMEM (GIBCO) without LIF and in low serum (0.5% FBS). Following starvation, EBs were incubated for 20 min at 37° C. with recombinant Cripto protein (0.5 µg/ml) either alone or in the presence of the indicated amount of peptides. Finally, EBs were dissolved in Laemmli lysis buffer and analyzed by Western blot using the Trans-Blot Semi-dry System (BIO-RAD), following manufacturer's instruction. Anti-Smad2 and anti-phospho-Smad2 (Ser465/467) Antibodies (Cell Signalling Technology) were used, following the manufacturer's instructions.
# T1 sequence (P51865 18-156 limits assumed): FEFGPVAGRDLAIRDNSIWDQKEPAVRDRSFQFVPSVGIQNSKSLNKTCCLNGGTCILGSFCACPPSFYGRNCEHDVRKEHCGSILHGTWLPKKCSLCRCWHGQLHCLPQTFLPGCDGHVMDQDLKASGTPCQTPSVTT
smiles,measurement,setting,value
C[S+]([O-])CCC(N)C(=O)N[C@@H](CSCc1ccccc1)C(=O)N[C@@H](CSCc1ccccc1)C(=O)N[C@@H](CCCCNC(=O)[C@H](CSCc1ccccc1)NC(=O)[C@H](CSCc1ccccc1)NC(=O)[C@@H](N)CC[S+](C)[O-])C(=O)N[C@@H](CCCCNC(=O)[C@H](CCCCNC(=O)[C@H](CSCc1ccccc1)NC(=O)[C@H](CSCc1ccccc1)NC(=O)[C@@H](N)CC[S+](C)[O-])NC(=O)[C@H](CSCc1ccccc1)NC(=O)[C@H](CSCc1ccccc1)NC(=O)[C@@H](N)CC[S+](C)[O-])C(=O)NCC(=O)O (some centres unmarked) [Cripto BP],inhibitory activity in final library screening,"Cripto/ALK-4 interaction; 30 single peptides B-23-23, 500- to 4000-fold excess, confirmed with HPLC purified molecule",optimal inhibitory activity
same,IC50,"Cripto/ALK-4 interaction; estimated, ELISA competition, FIG. 1b, read-out: IC50 for blocking the interaction of Cripto and ALK-4",400 nM
same,binding of ALK-4 receptor to immobilized peptide,ALK-4 receptor,not ALK-4 specifically recognized
same,effect on Cripto-induced Smad2 phosphorylation,"[1]; 2 day-old cripto−/− EBs, Cripto 0.5 μg/ml, peptide 2.5 μM and 25 μM",inhibited
same,effect on Cripto-induced Smad2 phosphorylation,[1]; peptide 25 μM (125× molar excess),completely blocked
